According to US20250179078A1, “INHIBITORS OF NLRP3” (PTC THERAPEUTICS, INC., priority 2022, published 2025):

Each compound was assayed against T1, NLRP3 (Homo sapiens, UniProt Q96P20) (assay: IL-1β Secretion Assay (NLRP3-dependent IL1β secretion in THP1 cells)). Conditions: PMA-differentiated THP-1 cells; compounds incubated 20 h; 2.5 μM Nigericin 3 h; HTRF IL-1β readout; read-out: IC50 IL-1β Inhibition.
T1 construct: host or cells: THP-1 cells differentiated with PMA
Assay type: cell-based
Summary of the method: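 IL-1β in conditioned media, measured by HTRF after 3 h 2.5 μM nigericin stimulation, gave % inhibition fitted logistically for IC50. Before that, PMA-differentiated (100 ng/mL, 24 h) THP-1 cells were preincubated 20 h with 7 compound concentrations (3-fold serial, DMSO 1:200).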

T1 sequence (Q96P20 whole entry): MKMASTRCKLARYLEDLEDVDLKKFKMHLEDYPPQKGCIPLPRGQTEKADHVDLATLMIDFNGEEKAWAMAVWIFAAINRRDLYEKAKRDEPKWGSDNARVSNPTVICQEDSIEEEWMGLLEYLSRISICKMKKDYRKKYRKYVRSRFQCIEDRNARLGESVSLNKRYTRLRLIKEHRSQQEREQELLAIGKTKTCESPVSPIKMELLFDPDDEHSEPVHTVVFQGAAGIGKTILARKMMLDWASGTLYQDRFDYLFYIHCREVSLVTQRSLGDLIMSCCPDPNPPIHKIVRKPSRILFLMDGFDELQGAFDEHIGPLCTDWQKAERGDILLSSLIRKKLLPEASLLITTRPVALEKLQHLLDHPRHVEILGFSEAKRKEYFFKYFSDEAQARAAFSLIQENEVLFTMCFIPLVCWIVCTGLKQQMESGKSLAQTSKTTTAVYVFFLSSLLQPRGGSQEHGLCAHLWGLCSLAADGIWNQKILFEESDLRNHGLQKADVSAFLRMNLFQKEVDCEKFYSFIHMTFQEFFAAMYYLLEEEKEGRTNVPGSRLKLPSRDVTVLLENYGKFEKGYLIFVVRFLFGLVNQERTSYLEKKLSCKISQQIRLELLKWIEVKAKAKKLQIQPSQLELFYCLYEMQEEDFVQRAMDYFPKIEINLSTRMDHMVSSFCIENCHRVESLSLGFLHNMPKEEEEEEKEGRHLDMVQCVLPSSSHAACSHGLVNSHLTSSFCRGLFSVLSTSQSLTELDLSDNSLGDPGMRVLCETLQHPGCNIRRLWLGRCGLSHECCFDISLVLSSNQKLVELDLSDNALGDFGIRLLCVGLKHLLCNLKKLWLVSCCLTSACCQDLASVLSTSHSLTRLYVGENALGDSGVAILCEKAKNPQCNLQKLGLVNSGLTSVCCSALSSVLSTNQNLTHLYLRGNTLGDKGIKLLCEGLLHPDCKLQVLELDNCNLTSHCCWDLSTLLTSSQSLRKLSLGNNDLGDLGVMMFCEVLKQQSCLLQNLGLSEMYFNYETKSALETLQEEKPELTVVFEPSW

For `COc1ccc(-c2nnc(NC[C@H]3CCCO3)n3cccc23)c(OC(F)(F)F)c1` [Compound 73, 1-[4-methoxy-2-(trifluoromethoxy)phenyl]-N-{[(2R)-oxolan-2-yl]methyl}pyrrolo[1,2-d][1,2,4]triazin-4-amine], which IC50 is on record?
Its IC50 is 10 to 100 nM.

With `COc1ccc(-c2nnc(NC[C@@H]3CCCN3C)n3cccc23)c(OC(F)(F)F)c1` [Compound 74, 1-[4-methoxy-2-(trifluoromethoxy)phenyl]-N-{[(2S)-1-methylpyrrolidin-2-yl]methyl}pyrrolo[1,2-d][1,2,4]triazin-4-amine] as the compound, how does the IC50 read?
The IC50 was 10 to 100 nM.

Which IC50 does the source give for `COc1cc(F)c(-c2nnc(N[C@@H]3CCCN(C)C3)n3cccc23)c(C2CC2)c1` [Compound 75, 1-(2-cyclopropyl-6-fluoro-4-methoxyphenyl)-N-[(3R)-1-methylpiperidin-3-yl]pyrrolo[1,2-d][1,2,4]triazin-4-amine] here?
The IC50 was 1 to 10 nM.

With `COc1ccc(-c2nnc(NC[C@@H]3CCCO3)n3cccc23)c(OC(F)(F)F)c1` [Compound 76, 1-[4-methoxy-2-(trifluoromethoxy)phenyl]-N-{[(2S)-oxolan-2-yl]methyl}pyrrolo[1,2-d][1,2,4]triazin-4-amine] as the compound, how does the IC50 read?
The IC50 was 10 to 100 nM.

How did the IC50 turn out when `O=C1NCCC1Nc1nnc(-c2ccc(C(F)(F)F)cc2CC(F)(F)F)c2cccn12` (centres unmarked) [Compound 77, 3-({1-[2-(2,2,2-trifluoroethyl)-4-(trifluoromethyl)phenyl]pyrrolo[1,2-d][1,2,4]triazin-4-yl}amino)pyrrolidin-2-one] was run?
The IC50 was 1 to 10 nM.

With `O[C@H]1CCCC[C@@H]1Nc1nnc(-c2ccc(C(F)(F)F)cc2OC(F)F)c2cccn12` [Compound 78, (1S,2S)-2-({1-[2-(difluoromethoxy)-4-(trifluoromethyl)phenyl]pyrrolo[1,2-d][1,2,4]triazin-4-yl}amino)cyclohexan-1-ol] as the compound, how does the IC50 read?
The IC50 was 10 to 100 nM.

For `O[C@@H]1CCCC[C@@H]1Nc1nnc(-c2ccc(C(F)(F)F)cc2OC(F)F)c2cccn12` [Compound 79, (1R,2S)-2-({1-[2-(difluoromethoxy)-4-(trifluoromethyl)phenyl]pyrrolo[1,2-d][1,2,4]triazin-4-yl}amino)cyclohexan-1-ol], which IC50 is on record?
The IC50 was 10 to 100 nM.

Which IC50 does the source give for `Cc1ccc(-c2nnc(N[C@H]3CCCC[C@@H]3O)n3cccc23)c(OC(F)F)c1` [Compound 80, (1S,2S)-2-({1-[2-(difluoromethoxy)-4-methylphenyl]pyrrolo[1,2-d][1,2,4]triazin-4-yl}amino)cyclohexan-1-ol] here?
Its IC50 is 10 to 100 nM.

How did the IC50 turn out when `COc1ccc(-c2nnc(N[C@H]3CCCC[C@@H]3O)n3cccc23)c(OC(F)(F)F)c1` [Compound 81, (1S,2S)-2-({1-[4-methoxy-2-(trifluoromethoxy)phenyl]pyrrolo[1,2-d][1,2,4]triazin-4-yl}amino)cyclohexan-1-ol] was run?
Its IC50 is 10 to 100 nM.

`CCN1CCC[C@@H](Nc2nnc(-c3ccc(OC)cc3Cl)c3c(F)ccn23)C1` [Compound 82, 1-(2-chloro-4-methoxyphenyl)-N-[(3R)-1-ethylpiperidin-3-yl]-8-fluoropyrrolo[1,2-d][1,2,4]triazin-4-amine] was tested. Which IC50 did it give?
The IC50 was 1 to 10 nM.

For `COc1ccc(-c2nnc(N[C@@H]3CCCN(CCO)C3)n3ccc(F)c23)c(Cl)c1` [Compound 83, 2-[(3R)-3-{[1-(2-chloro-4-methoxyphenyl)-8-fluoropyrrolo[1,2-d][1,2,4]triazin-4-yl]amino}piperidin-1-yl]ethan-1-ol], which IC50 is on record?
The IC50 was 1 to 10 nM.

`COc1ccc(-c2nnc(N[C@H]3C[C@@](C)(O)C3)n3ccc(F)c23)c(Cl)c1` [Compound 84, (1s,3s)-3-{[1-(2-chloro-4-methoxyphenyl)-8-fluoropyrrolo[1,2-d][1,2,4]triazin-4-yl]amino}-1-methylcyclobutan-1-ol] was tested. Which IC50 did it give?
The IC50 was 10 to 100 nM.

With `CCN1CCC[C@@H](Nc2nnc(-c3ccc(OC(F)F)cc3OC(F)(F)F)c3cccn23)C1` [Compound 85, 1-[4-(difluoromethoxy)-2-(trifluoromethoxy)phenyl]-N-[(3R)-1-ethylpiperidin-3-yl]pyrrolo[1,2-d][1,2,4]triazin-4-amine] as the compound, how does the IC50 read?
The IC50 was < 1 nM.

How did the IC50 turn out when `OCCN1CCC[C@@H](Nc2nnc(-c3ccc(OC(F)F)cc3OC(F)(F)F)c3cccn23)C1` [Compound 86, 2-[(3R)-3-({1-[4-(difluoromethoxy)-2-(trifluoromethoxy)phenyl]pyrrolo[1,2-d][1,2,4]triazin-4-yl}amino)piperidin-1-yl]ethan-1-ol] was run?
Its IC50 is < 1 nM.

For `CN1C[C@H](F)C[C@@H](Nc2nnc(-c3ccc(OC(F)F)cc3OC(F)(F)F)c3cccn23)C1` [Compound 87, 1-[4-(difluoromethoxy)-2-(trifluoromethoxy)phenyl]-N-[(3R,5R)-5-fluoro-1-methylpiperidin-3-yl]pyrrolo[1,2-d][1,2,4]triazin-4-amine], which IC50 is on record?
The IC50 was 1 to 10 nM.

Which IC50 does the source give for `C[C@]1(O)C[C@@H](Nc2nnc(-c3ccc(OC(F)F)cc3OC(F)(F)F)c3cccn23)C1` [Compound 88, (1s,3s)-3-({1-[4-(difluoromethoxy)-2-(trifluoromethoxy)phenyl]pyrrolo[1,2-d][1,2,4]triazin-4-yl}amino)-1-methylcyclobutan-1-ol] here?
Its IC50 is 1 to 10 nM.

How did the IC50 turn out when `CC(Nc1nnc(-c2ccc(C(F)(F)F)cc2OC(F)F)c2cccn12)c1cccc(O)c1` (centres unmarked) [Compound 89, 3-[1-({1-[2-(difluoromethoxy)-4-(trifluoromethyl)phenyl]pyrrolo[1,2-d][1,2,4]triazin-4-yl}amino)ethyl]phenol] was run?
Its IC50 is 1 to 10 nM.

How did the IC50 turn out when `O[C@@H]1CCCC[C@H]1Nc1nnc(-c2ccc(C(F)(F)F)cc2CC(F)(F)F)c2cccn12` [Compound 90, (1R,2R)-2-({1-[2-(2,2,2-trifluoroethyl)-4-(trifluoromethyl)phenyl]pyrrolo[1,2-d][1,2,4]triazin-4-yl}amino)cyclohexan-1-ol] was run?
The IC50 was < 1 nM.

With `COc1ccc(-c2nnc(NCc3ncco3)n3cccc23)c(OC(F)(F)F)c1` [Compound 91, 1-[4-methoxy-2-(trifluoromethoxy)phenyl]-N-[(1,3-oxazol-2-yl)methyl]pyrrolo[1,2-d][1,2,4]triazin-4-amine] as the compound, how does the IC50 read?
The IC50 was 10 to 100 nM.

With `COc1ccc(-c2nnc(NCc3nncn3C)n3cccc23)c(OC(F)(F)F)c1` [Compound 92, 1-[4-methoxy-2-(trifluoromethoxy)phenyl]-N-[(4-methyl-4H-1,2,4-triazol-3-yl)methyl]pyrrolo[1,2-d][1,2,4]triazin-4-amine] as the compound, how does the IC50 read?
The IC50 was 100 to 300 nM.

Which IC50 does the source give for `COc1ccc(-c2nnc(NCc3ncnn3C)n3cccc23)c(OC(F)(F)F)c1` [Compound 93, 1-[4-methoxy-2-(trifluoromethoxy)phenyl]-N-[(1-methyl-1H-1,2,4-triazol-5-yl)methyl]pyrrolo[1,2-d][1,2,4]triazin-4-amine] here?
The IC50 was 10 to 100 nM.

Which IC50 does the source give for `COc1ccc(-c2nnc(NC34CC(CO)(C3)C4)n3cccc23)c(OC(F)(F)F)c1` [Compound 94, [3-({1-[4-methoxy-2-(trifluoromethoxy)phenyl]pyrrolo[1,2-d][1,2,4]triazin-4-yl}amino)bicyclo[1.1.1]pentan-1-yl]methanol] here?
Its IC50 is 10 to 100 nM.

Which IC50 does the source give for `CCC(=O)c1ccc(-c2nnc(N[C@@H]3CCCN(C)C3)n3cccc23)c(OC(F)F)c1` [Compound 95, 1-[3-(difluoromethoxy)-4-(4-{[(3R)-1-methylpiperidin-3-yl]amino}pyrrolo[1,2-d][1,2,4]triazin-1-yl)phenyl]propan-1-one] here?
Its IC50 is 1 to 10 nM.

`CC(Nc1nnc(-c2ccc(C(F)(F)F)cc2CC(F)(F)F)c2cccn12)c1cccc(O)c1` (centres unmarked) [Compound 96, 3-[1-({1-[2-(2,2,2-trifluoroethyl)-4-(trifluoromethyl)phenyl]pyrrolo[1,2-d][1,2,4]triazin-4-yl}amino)ethyl]phenol] was tested. Which IC50 did it give?
The IC50 was 1 to 10 nM.

With `FC(F)(F)Cc1cc(C(F)(F)F)ccc1-c1nnc(Nc2cc[nH]n2)n2cccc12` [Compound 97, N-(1H-pyrazol-3-yl)-1-[2-(2,2,2-trifluoroethyl)-4-(trifluoromethyl)phenyl]pyrrolo[1,2-d][1,2,4]triazin-4-amine] as the compound, how does the IC50 read?
The IC50 was 10 to 100 nM.

With `CN1C[C@@H](O)C[C@@H](Nc2nnc(-c3ccc(C(F)(F)F)cc3OC(F)F)c3cccn23)C1` [Compound 98, (3S,5R)-5-({1-[2-(difluoromethoxy)-4-(trifluoromethyl)phenyl]pyrrolo[1,2-d][1,2,4]triazin-4-yl}amino)-1-methylpiperidin-3-ol] as the compound, how does the IC50 read?
Its IC50 is 1 to 10 nM.

How did the IC50 turn out when `O[C@H]1CCCC[C@@H]1Nc1nnc(-c2ccc(C(F)(F)F)cc2C(F)(F)F)c2cccn12` [Compound 99, (1S,2S)-2-({1-[2,4-bis(trifluoromethyl)phenyl]pyrrolo[1,2-d][1,2,4]triazin-4-yl}amino)cyclohexan-1-ol] was run?
The IC50 was 100 to 300 nM.

How did the IC50 turn out when `Cc1ccc(-c2nnc(NC(C)c3cccc(O)c3)n3cccc23)c(OC(F)F)c1` (centres unmarked) [Compound 100, 3-[1-({1-[2-(difluoromethoxy)-4-methylphenyl]pyrrolo[1,2-d][1,2,4]triazin-4-yl}amino)ethyl]phenol] was run?
Its IC50 is 1 to 10 nM.

`Oc1cccc(CNc2nnc(-c3ccc(C(F)(F)F)cc3OC(F)F)c3cccn23)c1` [Compound 101, 3-[{{1-[2-(difluoromethoxy)-4-(trifluoromethyl)phenyl]pyrrolo[1,2-d][1,2,4]triazin-4-yl}amino)methyl]phenol] was tested. Which IC50 did it give?
The IC50 was 1 to 10 nM.

`COc1ccc(-c2nnc(N[C@H]3C[C@@](C)(O)C3)n3cccc23)c(C2CC2)c1` [Compound 104, (1s,3s)-3-{[1-(2-cyclopropyl-4-methoxyphenyl)pyrrolo[1,2-d][1,2,4]triazin-4-yl]amino}-1-methylcyclobutan-1-ol] was tested. Which IC50 did it give?
Its IC50 is 10 to 100 nM.

How did the IC50 turn out when `COc1ccc(-c2nnc(Nc3cc[nH]n3)n3cccc23)c(C2CC2)c1` [Compound 105, 1-(2-cyclopropyl-4-methoxyphenyl)-N-(1H-pyrazol-3-yl)pyrrolo[1,2-d][1,2,4]triazin-4-amine] was run?
The IC50 was 100 to 300 nM.

With `COc1ccc(-c2nnc(N[C@@H]3CCC[C@H](O)C3)n3cccc23)c(C2CC2)c1` [Compound 106, (1S,3R)-3-{[1-(2-cyclopropyl-4-methoxyphenyl)pyrrolo[1,2-d][1,2,4]triazin-4-yl]amino}cyclohexan-1-ol] as the compound, how does the IC50 read?
Its IC50 is 10 to 100 nM.
